# Measured values: patent publication US20080279800A1, “AROMACHEMICALS” (Flexitral, Inc., priority 2007, published 2008)
# Experiment: Toxicology tests, oral LD50
# Details: rat, in vivo, rats
smiles,measurement,value
"CC(C(C)C(C)(C)C)C(C)C1(C)CO1 (stereo not shown) [2-methyl-2-(1,2,3,4,4-pentamethylpentyl)oxirane]",LD50,> 2000 mg/kg
